These results are taken from patent US8299074B2, “P38 MAP kinase inhibitors” (RespiVert Ltd., priority 2008, dated 2012).

pEC50, pIC50: −log10 of the molar value. Where two headings read alike, the source gives them in different places.

The target in one data set is T1, p38 MAPK alpha (MAPK14) (Homo sapiens, UniProt Q16539).
T1 construct: purchased Invitrogen
The data set is described as follows: Enzyme inhibition assay, p38 MAPK alpha (FRET, Z-LYTE, via MAPKAP-K2). Format: biochemical. The settings on record: read-out: Enzyme p38α IC50.

The test system of data set [1] is U937 cells. The data set is described as follows: LPS-induced TNF alpha release in U937 cells. As to conditions: Homo sapiens; read-out: DU937 (LPS) TNFα REC50. In kind it is cell-based. The protocol: (§1) LPS-Induced TNF Alpha/IL-8 Release in U937 Cells: Potency U937 cells, human monocytic cell line, were differentiated to macrophage-type cells by incubation with phorbol myristate acetate (PMA; 100 ng/ml) for 48 to 72 hours. Cells were pre-incubated with final concentrations of compound for 2 hrs. […] Coli: O111:B4, Sigma) for 4 hrs, and the supernatant collected for determination of TNFα and IL-8 concentration by sandwich ELISA (Duo-set, R&D systems). […] The inhibition of IL-8 production was calculated at each concentration of test compound by comparison with vehicle control.

In data set [2] the test system is Differentiated U937 cells. Kind of data set: MTT assay (cell viability). Format: cell-based, human. On the procedure: MTT Assay Differentiated U937 cells were pre-incubated with compound for 4 hrs in 5% FCS or 10% FCS for 24 hrs. […] After 1 hr incubation, the media were removed, 200 ul of DMSO added to each well and the plates were shaken lightly for 1 h prior to reading the absorbance at 550 nm. The percentage loss of cell viability was calculated for each well relative to vehicle (0.5% DMSO)-treatment. Consequently an apparent increase in cell viability for drug treatment relative to vehicle is tabulated as a negative percentage.

The next data set concerns THP-1 cells. Kind of data set: LPS-induced TNF alpha release in THP-1 cells. In kind it is cell-based. As to conditions: Homo sapiens, THP-1, read-out: THP-1 (LPS) TNFα IC50. On the procedure:
LPS-Induced TNF Alpha Release in THP-1 Cells: Potency […] Coli; O111:B4, Sigma) for 4 hr and the supernatant collected for determination of TNFα concentration by sandwich ELISA (Duo-set, R&D systems). The inhibition of TNFα production was calculated at each concentration by comparison with vehicle control.

For data set [3], the system named is U937 cells. The data set is described as follows: LPS-induced IL-8 release in U937 cells. Format: cell-based. As to conditions: Homo sapiens, read-out: DU937 (LPS) IL-8 IC50. The protocol: as §1
A further data set relates to BEAS2B cells. Kind of data set: Poly I:C-induced ICAM-1 induction in BEAS2B cells. In kind it is cell-based. As to conditions: Homo sapiens, BEAS-2B, read-out: BEAS2B (polyIC) ICAM1 IC50. On the procedure:
Poly I:C-Induced ICAM-1 Induction in BEAS2B Cells: Potency Poly I:C (1 ug/ml) (Invivogen Ltd., San Diego, Calif.) was transfected into BEAS2B cells (human bronchial epithelial cells, ATCC) with Oligofectamine (Invitrogen, Carlsbad, Calif.). Cells were pre-incubated with final concentrations of compound for 2 hrs. The level of ICAM1 expression on the cell surface was determined by cell-based ELISA. Briefly, at 18 hrs after poly I:C transfection, cells were fixed with 4% formaldehyde in PBS. After quenching endogenous peroxidase by adding 0.1% sodium azide and 1% hydrogen peroxide, cells were washed with wash-buffer (0.1% Tween in PBS: PBS-Tween). After blocking the wells with 5% milk in PBS-Tween for 1 hr, the cells were incubated with anti-human ICAM-1 antibody (Cell Signaling Technology, Danvers, Mass.) in 1% BSA PBS overnight at 4° C. Cells were washed with PBS-Tween and incubated with the secondary antibody (HRP-conjugated anti-rabbit IgG, Dako Ltd., Glostrup, Denmark). The ICAM-1 signal was detected by adding substrate and reading at 450 nm with a reference wavelength of 655 nm using a spectrophotometer. […] The measured OD 450-655 readings were corrected for cell number by dividing with the OD595 reading in each well.

Setting [4] is: Table 2, loss of cell viability, test conducted at 10 μg/ml.
[5] abbreviates: Table 2, loss of cell viability at 1 μg/ml.

T1 sequence (Q16539 whole entry): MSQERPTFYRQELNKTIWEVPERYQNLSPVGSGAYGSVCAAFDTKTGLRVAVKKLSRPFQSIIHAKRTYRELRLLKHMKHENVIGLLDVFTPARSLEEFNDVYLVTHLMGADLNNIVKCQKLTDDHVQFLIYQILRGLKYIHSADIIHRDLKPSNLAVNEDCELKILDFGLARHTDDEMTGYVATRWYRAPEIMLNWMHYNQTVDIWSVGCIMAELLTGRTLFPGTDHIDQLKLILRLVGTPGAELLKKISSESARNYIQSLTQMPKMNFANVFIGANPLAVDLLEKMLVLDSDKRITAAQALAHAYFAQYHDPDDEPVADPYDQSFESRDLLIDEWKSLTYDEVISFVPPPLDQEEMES

For `Cc1ccc(-n2nc(C(C)(C)C)cc2NC(=O)Nc2ccc(Oc3ccnc(NC(=O)CO)c3)c3ccccc23)cc1` [Example 5, N-(4-(4-(3-(3-tert-Butyl-1-p-tolyl-1H-pyrazol-5-yl)ureido)naphthalen-1-yloxy)pyridin-2-yl)-2-hydroxyacetamide], the pIC50 on p38 MAPK alpha (MAPK14) (Table 2) was greater than 5.30; with THP-1 cells (Table 2), greater than 8.00; in the data set with U937 cells [3] (Table 2), greater than 8.00; in the data set with BEAS2B cells (Table 2), greater than 8.00. Also, the pEC50 in the data set with U937 cells [1] was greater than 8.00. Moreover, the “DU937 (cell viability) MTT assay 4 h” value in data set [2] (setting [4]) was “+^$ (>30%)”. Besides, the “DU937 (cell viability) MTT assay 24 h” value in data set [2] (setting [4]) is recorded as “+^$ (>30%)”.
With `COCC(=O)Nc1cc(Oc2ccc(NC(=O)Nc3cc(C(C)C)nn3-c3ccc(C)cc3)c3ccccc23)ccn1` [Example 6, N-(4-(4-(3-(3-Isopropyl-1-p-tolyl-1H-pyrazol-5-yl)ureido)naphthalen-1-yloxy)pyridin-2-yl)-2-methoxyacetamide], the pIC50 was greater than 8.00 at p38 MAPK alpha (MAPK14) (Table 2), greater than 8.00 with THP-1 cells (Table 2), greater than 5.30 with U937 cells [3] (Table 2) and greater than 5.30 in the data set with BEAS2B cells (Table 2). Moreover, the pEC50 in the data set with U937 cells [1] is greater than 8.00. In data set [2] (setting [5]), the “DU937 (cell viability) MTT assay 4 h” value was “− (<=30%)”. Besides, the “DU937 (cell viability) MTT assay 24 h” value in data set [2] (setting [5]) is “− (<=30%)”.
As to `CCc1cc(NC(=O)Nc2ccc(Oc3ccnc(NC(=O)COC)c3)c3ccccc23)n(-c2ccc(C)cc2)n1` [Example 7, N-(4-(4-(3-(3-Ethyl-1-p-tolyl-1H-pyrazol-5-yl)ureido)naphthalen-1-yloxy)pyridin-2-yl)-2-methoxyacetamide], the pIC50 on p38 MAPK alpha (MAPK14) (Table 2) was greater than 8.00; with THP-1 cells (Table 2) it was greater than 8.00; with U937 cells [3] (Table 2), greater than 8.00; in the data set with BEAS2B cells (Table 2), greater than 5.30. The pEC50 in the data set with U937 cells [1] is greater than 8.00. In data set [2] (setting [5]), the “DU937 (cell viability) MTT assay 4 h” value is given as “− (<=30%)”. In addition, in data set [2] (setting [5]), the “DU937 (cell viability) MTT assay 24 h” value was “− (<=30%)”.
With `COCC(=O)Nc1cc(Oc2ccc(NC(=O)Nc3cc(C(C)(C)CO)nn3-c3ccc(C)cc3)c3ccccc23)ccn1` [Example 9, N-(4-(4-(3-(3-(1-Hydroxy-2-methylpropan-2-yl)-1-p-tolyl-1H-pyrazol-5-yl)ureido)naphthalen-1-yloxy)pyridin-2-yl)-2-methoxyacetamide], the pIC50 at p38 MAPK alpha (MAPK14) (Table 2) is greater than 8.00; in the data set with THP-1 cells (Table 2) it was greater than 8.00; with U937 cells [3] (Table 2), greater than 8.00; in the data set with BEAS2B cells (Table 2), greater than 5.30. For the same compound, the pEC50 in the data set on U937 cells [1] was greater than 8.00. Further, the “DU937 (cell viability) MTT assay 4 h” value in data set [2] (setting [5]) is “− (<=30%)”. Besides, in data set [2] (setting [5]), the “DU937 (cell viability) MTT assay 24 h” value is reported as “− (<=30%)”.
Turning to `Cc1ccc(-n2nc(C(C)(C)C)cc2NC(=O)Nc2ccc(Oc3ccnc(NC(=O)CN4CCOCC4)c3)c3ccccc23)cc1` [Example 11, N-(4-(4-(3-(3-tert-Butyl-1-p-tolyl-1H-pyrazol-5-yl)ureido)naphthalen-1-yloxy)pyridin-2-yl)-2-morpholinoacetamide], the pIC50 at p38 MAPK alpha (MAPK14) (Table 2) was greater than 8.00; in the data set with THP-1 cells (Table 2) it was greater than 8.00; with U937 cells [3] (Table 2) it was greater than 8.00; in the data set with BEAS2B cells (Table 2) it was greater than 5.30. Besides, the pEC50 in the data set on U937 cells [1] was greater than 8.00. In data set [2] (setting [4]), the “DU937 (cell viability) MTT assay 4 h” value is on record as “−^$ (<=30%)”. Besides, in data set [2] (setting [4]), the “DU937 (cell viability) MTT assay 24 h” value is listed as “+^$ (>30%)”.
On to `Cc1ccc(-n2nc(C(C)(C)C)cc2NC(=O)Nc2ccc(Oc3ccnc(NC(=O)CN(C)C)c3)c3ccccc23)cc1` [Example 12, N-(4-(4-(3-(3-tert-Butyl-1-p-tolyl-1H-pyrazol-5-yl)ureido)naphthalen-1-yloxy)pyridin-2-yl)-(dimethylamino)acetamide], for which the pIC50 was greater than 8.00 on p38 MAPK alpha (MAPK14) (Table 2), greater than 8.00 in the data set with THP-1 cells (Table 2), greater than 8.00 with U937 cells [3] (Table 2) and greater than 5.30 in the data set on BEAS2B cells (Table 2). In addition, the pEC50 with U937 cells [1] was greater than 8.00. Further, in data set [2] (setting [4]), the “DU937 (cell viability) MTT assay 4 h” value is given as “−^$ (<=30%)”. For the same compound, the “DU937 (cell viability) MTT assay 24 h” value in data set [2] (setting [4]) is recorded as “+^$ (>30%)”.
Take `COCCNCC(=O)Nc1cc(Oc2ccc(NC(=O)Nc3cc(C(C)(C)C)nn3-c3ccc(C)cc3)c3ccccc23)ccn1` [Example 13, N-(4-(4-(3-(3-tert-Butyl-1-p-tolyl-1H-pyrazol-5-yl)ureido)naphthalen-1-yloxy)pyridin-2-yl)-2-(2-methoxyethylamino)acetamide]: the negative-log IC50 (pIC50) at p38 MAPK alpha (MAPK14) (Table 2), in the data set with THP-1 cells (Table 2), in the data set with U937 cells [3] (Table 2) and with BEAS2B cells (Table 2) was greater than 8.00 throughout. The pEC50 in the data set with U937 cells [1] was greater than 8.00. Moreover, the “DU937 (cell viability) MTT assay 4 h” value in data set [2] (setting [4]) is on record as “−^$ (<=30%)”. In addition, the “DU937 (cell viability) MTT assay 24 h” value in data set [2] (setting [4]) is reported as “+^$ (>30%)”.
As to `Cc1ccc(-n2nc(C(C)(C)C)cc2NC(=O)Nc2ccc(Oc3ccnc(NC(=O)CNC(N)=O)c3)c3ccccc23)cc1` [Example 14, N-(4-(4-(3-(3-tert-Butyl-1-p-tolyl-1H-pyrazol-5-yl)ureido)naphthalen-1-yloxy)pyridin-2-yl)-2-ureidoacetamide], the pIC50 on p38 MAPK alpha (MAPK14) (Table 2) is greater than 8.00; in the data set with THP-1 cells (Table 2) it was greater than 5.30; in the data set with U937 cells [3] (Table 2), greater than 5.30; in the data set with BEAS2B cells (Table 2), greater than 5.30. Besides, the pEC50 with U937 cells [1] was greater than 5.30. Also, in data set [2] (setting [5]), the “DU937 (cell viability) MTT assay 4 h” value is reported as “− (<=30%)”. Moreover, the “DU937 (cell viability) MTT assay 24 h” value in data set [2] (setting [5]) is on record as “− (<=30%)”.
On to `COCC(=O)NCC(=O)Nc1cc(Oc2ccc(NC(=O)Nc3cc(C(C)(C)C)nn3-c3ccc(C)cc3)c3ccccc23)ccn1` [Example 15, N-(4-(4-(3-(3-tert-Butyl-1-p-tolyl-1H-pyrazol-5-yl)ureido)naphthalen-1-yloxy)pyridin-2-yl)-2-(2-methoxyacetamido)acetamide], for which the pIC50 at p38 MAPK alpha (MAPK14) (Table 2), in the data set on THP-1 cells (Table 2), in the data set on U937 cells [3] (Table 2) and in the data set on BEAS2B cells (Table 2) was greater than 8.00 throughout. Moreover, the pEC50 in the data set on U937 cells [1] was greater than 8.00. The “DU937 (cell viability) MTT assay 4 h” value in data set [2] (setting [5]) was “− (<=30%)”. In addition, in data set [2] (setting [5]), the “DU937 (cell viability) MTT assay 24 h” value is listed as “+ (>30%)”.
`Cc1ccc(-n2nc(C(C)(C)C)cc2NC(=O)Nc2ccc(Oc3ccnc(NC(=O)CNC(=O)C4CCOCC4)c3)c3ccccc23)cc1` [Example 16, N-(2-(4-(4-(3-(3-tert-Butyl-1-p-tolyl-1H-pyrazol-5-yl)ureido)naphthalen-1-yloxy)pyridin-2-ylamino)-2-oxoethyl)tetrahydro-2H-pyran-4-carboxamide]: the pIC50 at p38 MAPK alpha (MAPK14) (Table 2), in the data set with THP-1 cells (Table 2), in the data set on U937 cells [3] (Table 2) and in the data set on BEAS2B cells (Table 2) was greater than 8.00 in each case. Also, in the data set on U937 cells [1], the pEC50 was greater than 8.00. Further, the “DU937 (cell viability) MTT assay 4 h” value in data set [2] (setting [5]) is on record as “− (<=30%)”. Besides, the “DU937 (cell viability) MTT assay 24 h” value in data set [2] (setting [5]) is “+ (>30%)”.
Turning to `Cc1ccc(-n2nc(C(C)(C)C)cc2NC(=O)Nc2ccc(Oc3ccnc(NC(=O)NCC(=O)N4CCOCC4)c3)c3ccccc23)cc1` [Example 58, 2-(3-(4-(4-(3-(3-tert-Butyl-1-p-tolyl-1H-pyrazol-5-yl)ureido)naphthalen-1-yloxy)pyridin-2-yl)ureido)acetyl morpholine], the pIC50 on p38 MAPK alpha (MAPK14) (Table 3), in the data set on THP-1 cells (Table 3), in the data set with U937 cells [3] (Table 3) and with BEAS2B cells (Table 3) was greater than 8.00 throughout. Moreover, the “DU937 (cell viability) MTT assay 4 h” value in data set [2] (Table 3, first MTT column, loss of cell viability at 1 μg/ml) is recorded as “− (<=30%)”; in data set [2] (Table 3, second MTT column, loss of cell viability at 1 μg/ml) it was “− (<=30%)”.
